Reference: patent publication US7211581B2, “Substituted 2-(diaza-bicyclo-alkyl)-pyrimidone derivatives” (Sanofi-Aventis, priority 2003, dated 2007)
Where a name gives a salt, the structure may show the parent alone.

How the values were obtained:
[1] = target: GSK3β (Homo sapiens, UniProt P49841); experiment: Inhibitory activity against GSK3β (33P-ATP phosphorylation of prephosphorylated GS1 peptide, two protocols); assay type: biochemical
Experimental: Inhibitory Activity of the Medicament of the Present Invention Against GSK3β Two different protocols can be used. In a first protocol: 7.5 μM of prephosphorylated GS1 peptide and 10 μM ATP (containing 300,000 cpm of ^33P-ATP) were incubated in 25 mM Tris-HCl, pH 7.5, 0.6 mM DTT, 6 mM MgCl2, 0.6 mM EGTA, 0.05 mg/ml BSA buffer for 1 hour at room temperature in the presence of GSK3beta (total reaction volume: 100 microliters). In a second protocol: 4.1 μM of prephosphorylated GS 1 peptide and 42 μM ATP (containing 260,000 cpm ^33P-ATP) were incubated in 80 mM Mes-NaOH, pH 6.5, 1 mM Mg acetate, 0.5 mM EGTA, 5 mM 2-mercaptoethanol, 0.02% Tween 20, 10% glycerol buffer for 2 hours at room temperature in the presence of GSK3beta. Inhibitors were solubilised in DMSO (final solvent concentration in the reaction medium, 1%). The reaction was stopped with 100 microliters of a solution made of 25 g polyphosphoric acid (85% P2O5), 126 ml 85% H3PO4, H2O to 500 ml and then diluted to 1:100 before use. An aliquot of the reaction mixture was then transferred to Whatman P81 cation exchange filters and rinsed with the solution described above. Incorporated 33P radioactivity was determined by liquid scintillation spectrometry. The phosphorylated GS-1 peptide had the following sequence: • NH2-[…](P)EDEE-COOH.

Sequence of GSK3β (P49841 whole entry, species assumed): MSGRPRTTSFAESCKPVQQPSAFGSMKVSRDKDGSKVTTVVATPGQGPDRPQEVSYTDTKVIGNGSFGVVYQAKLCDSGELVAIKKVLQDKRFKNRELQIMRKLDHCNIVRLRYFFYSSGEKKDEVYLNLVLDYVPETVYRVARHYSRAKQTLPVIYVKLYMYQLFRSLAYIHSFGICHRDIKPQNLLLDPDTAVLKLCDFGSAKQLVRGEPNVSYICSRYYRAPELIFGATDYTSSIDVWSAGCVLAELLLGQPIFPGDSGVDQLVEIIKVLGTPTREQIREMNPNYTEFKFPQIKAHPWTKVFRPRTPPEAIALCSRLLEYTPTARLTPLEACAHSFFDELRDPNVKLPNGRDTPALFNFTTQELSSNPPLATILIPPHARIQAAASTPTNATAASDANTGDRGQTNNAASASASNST

Row | melting point | IC50 [1] | Structure (SMILES)
1 | 240 to 242 °C |  | Cn1c(N2CC3C[C@H]2CN3)nc(-c2ccncc2)cc1=O (as salt: hydrochloride)
2 | 142 to 144 °C | 6 nM | Cn1c(N2CC3C[C@H]2CN3C(=O)c2ccc(Br)cc2)nc(-c2ccncn2)cc1=O [Compound 24, (1S)-2-(5-(4-Bromo-benzoyl)-2,5-diaza-bicyclo[2.2.1]hept-2-yl)-1-methyl-1H-[4,4′]bipyrimidinyl-6-one]
3 | 123 to 125 °C | 4 nM | Cc1ccc(N2C[C@@H]3CC2CN3c2nc(-c3ccncc3)cc(=O)n2C)cc1 [4′, (1S)-3-Methyl-6-pyridin-4-yl-2-(5-p-tolyl-2,5-diaza-bicyclo[2.2.1]hept-2-yl)-3H-pyrimidin-4-one]
4 | 275 to 277 °C |  | Cn1c(N2CC3C[C@H]2CN3)nc(-c2ccncn2)cc1=O (as salt: hydrochloride)
